According to PubChem BioAssay AID2060488 (Molecular Pharmacology Branch, DTP, NCI, 2025):

Tested on: 966289-007-R4-J1-PDC complex spheroid viability
Assay: Anticancer human tumor 966289-007-R4-J1-PDC patient-derived pancreatic adenocarcinoma cell line growth inhibition [GQUAD]
Conditions: for IC50: curve of first compound; for viability, T/C: stronger effect = lower value
Summary of the method: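 Multi-cell-type spheroids of tumor cells with HUVEC and mesenchymal stem cells, treated with drug combinations. Concentrations descend in half-log steps from near clinical Cmax, or from 10 microM where Cmax is unknown; viability read-out.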

[1] = second compound 0.0316 µM, first compound 0.0316 µM
[2] = second compound 0.0316 µM, first compound 0.1 µM
[3] = second compound 0.0316 µM, first compound 0.316 µM
[4] = second compound 0.0316 µM, first compound 1 µM
[5] = second compound 0.0316 µM, first compound 3.16 µM
[6] = second compound 0.0316 µM, first compound 10 µM
[7] = second compound 0.1 µM, first compound 0.0316 µM
[8] = second compound 0.1 µM, first compound 0.1 µM
[9] = second compound 0.1 µM, first compound 0.316 µM
[10] = second compound 0.1 µM, first compound 1 µM
[11] = second compound 0.1 µM, first compound 3.16 µM
[12] = second compound 0.1 µM, first compound 10 µM
[13] = second compound 0.316 µM, first compound 0.0316 µM
[14] = second compound 0.316 µM, first compound 0.1 µM
[15] = second compound 0.316 µM, first compound 0.316 µM
[16] = second compound 0.316 µM, first compound 1 µM
[17] = second compound 0.316 µM, first compound 3.16 µM
[18] = second compound 0.316 µM, first compound 10 µM
[19] = second compound 1 µM, first compound 0.0316 µM
[20] = second compound 1 µM, first compound 0.1 µM
[21] = second compound 1 µM, first compound 0.316 µM
[22] = second compound 1 µM, first compound 1 µM
[23] = second compound 1 µM, first compound 3.16 µM
[24] = second compound 1 µM, first compound 10 µM
[25] = second compound 3.16 µM, first compound 0.0316 µM
[26] = second compound 3.16 µM, first compound 0.1 µM
[27] = second compound 3.16 µM, first compound 0.316 µM
[28] = second compound 3.16 µM, first compound 1 µM
[29] = second compound 3.16 µM, first compound 3.16 µM
[30] = second compound 3.16 µM, first compound 10 µM
[31] = second compound 10 µM, first compound 0.0316 µM
[32] = second compound 10 µM, first compound 0.1 µM
[33] = second compound 10 µM, first compound 0.316 µM
[34] = second compound 10 µM, first compound 1 µM
[35] = second compound 10 µM, first compound 3.16 µM
[36] = second compound 10 µM, first compound 10 µM
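Also: spheroids exposed to the agents for seven days before readout.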
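For viability, T/C in this document: percent viability relative to DMSO vehicle control wells taken as 100%.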

CC(C)n1c(=O)n(C)c2cnc3cc(F)c(-c4ccc(OCCCN5CCCCC5)nc4)cc3c21 + CN(C)c1ccc(Nc2c3ccc(NC(=O)CCN4CCCC4)cc3nc3cc(NC(=O)CCN4CCCC4)ccc23)cc1
IC50 (second compound 0.0316 µM): > 10000 nM
IC50 (second compound 0.1 µM): > 10000 nM
IC50 (second compound 0.316 µM): > 10000 nM
IC50 (second compound 1 µM): > 10000 nM
IC50 (second compound 3.16 µM): 5670 nM
IC50 (second compound 10 µM): 269 nM
viability, T/C [1]: 108%
viability, T/C [2]: 105%
viability, T/C [3]: 108%
viability, T/C [4]: 106%
viability, T/C [5]: 108%
viability, T/C [6]: 87.5%
viability, T/C [7]: 103%
viability, T/C [8]: 102%
viability, T/C [9]: 106%
viability, T/C [10]: 106%
viability, T/C [11]: 107%
viability, T/C [12]: 88%
viability, T/C [13]: 98.1%
viability, T/C [14]: 103%
viability, T/C [15]: 107%
viability, T/C [16]: 109%
viability, T/C [17]: 107%
viability, T/C [18]: 86.6%
viability, T/C [19]: 103%
viability, T/C [20]: 99.5%
viability, T/C [21]: 107%
viability, T/C [22]: 108%
viability, T/C [23]: 103%
viability, T/C [24]: 70.5%
viability, T/C [25]: 102%
viability, T/C [26]: 104%
viability, T/C [27]: 107%
viability, T/C [28]: 102%
viability, T/C [29]: 87.1%
viability, T/C [30]: 14.1%
viability, T/C [31]: 98.7%
viability, T/C [32]: 79%
viability, T/C [33]: 46%
viability, T/C [34]: 16%
viability, T/C [35]: 5.65%
viability, T/C [36]: 1.75%

CC[C@@]1(O)C(=O)OCc2c1cc1n(c2=O)Cc2cc3c(CN(C)C)c(O)ccc3nc2-1 + CN(C)c1ccc(Nc2c3ccc(NC(=O)CCN4CCCC4)cc3nc3cc(NC(=O)CCN4CCCC4)ccc23)cc1
IC50 (second compound 0.0316 µM): 49.8 nM
IC50 (second compound 0.1 µM): 50.3 nM
IC50 (second compound 0.316 µM): 48.5 nM
IC50 (second compound 1 µM): 53.3 nM
IC50 (second compound 3.16 µM): 50.7 nM
IC50 (second compound 10 µM): 24.8 nM
viability, T/C (second compound 0.0316 µM, first compound 0.000999 µM): 100%
viability, T/C (second compound 0.0316 µM, first compound 0.00316 µM): 96.9%
viability, T/C (second compound 0.0316 µM, first compound 0.00999 µM): 92.9%
viability, T/C [1]: 82.1%
viability, T/C (second compound 0.0316 µM, first compound 0.0999 µM): 0.84%
viability, T/C [3]: 0.56%
viability, T/C (second compound 0.1 µM, first compound 0.000999 µM): 102%
viability, T/C (second compound 0.1 µM, first compound 0.00316 µM): 98%
viability, T/C (second compound 0.1 µM, first compound 0.00999 µM): 103%
viability, T/C [7]: 83.5%
viability, T/C (second compound 0.1 µM, first compound 0.0999 µM): 0.82%
viability, T/C [9]: 0.54%
viability, T/C (second compound 0.316 µM, first compound 0.000999 µM): 101%
viability, T/C (second compound 0.316 µM, first compound 0.00316 µM): 96.1%
viability, T/C (second compound 0.316 µM, first compound 0.00999 µM): 107%
viability, T/C [13]: 79%
viability, T/C (second compound 0.316 µM, first compound 0.0999 µM): 0.87%
viability, T/C [15]: 0.83%
viability, T/C (second compound 1 µM, first compound 0.000999 µM): 92.1%
viability, T/C (second compound 1 µM, first compound 0.00316 µM): 96.5%
viability, T/C (second compound 1 µM, first compound 0.00999 µM): 102%
viability, T/C [19]: 91%
viability, T/C (second compound 1 µM, first compound 0.0999 µM): 0.86%
viability, T/C [21]: 0.61%
viability, T/C (second compound 3.16 µM, first compound 0.000999 µM): 96.1%
viability, T/C (second compound 3.16 µM, first compound 0.00316 µM): 98.2%
viability, T/C (second compound 3.16 µM, first compound 0.00999 µM): 110%
viability, T/C [25]: 84.3%
viability, T/C (second compound 3.16 µM, first compound 0.0999 µM): 1.25%
viability, T/C [27]: 0.55%
viability, T/C (second compound 10 µM, first compound 0.000999 µM): 104%
viability, T/C (second compound 10 µM, first compound 0.00316 µM): 89.2%
viability, T/C (second compound 10 µM, first compound 0.00999 µM): 110%
viability, T/C [31]: 36.2%
viability, T/C (second compound 10 µM, first compound 0.0999 µM): 0.73%
viability, T/C [33]: 0.68%

COc1cc(C2c3cc4c(cc3C(OC3OC5COC(C)OC5C(O)C3O)C3COC(=O)C23)OCO4)cc(OC)c1O (stereo unspecified) + Cc1cnc(CNC(=O)c2c(=O)c3ccc(N4CCCN(C)CC4)nc3n3c2sc2ccccc23)cn1
IC50 (second compound 0.0316 µM): 110 nM
IC50 (second compound 0.1 µM): < 31.6 nM
IC50 (second compound 0.316 µM): < 31.6 nM
IC50 (second compound 1 µM): < 31.6 nM
IC50 (second compound 3.16 µM): < 31.6 nM
IC50 (second compound 10 µM): < 31.6 nM
viability, T/C [1]: 88%
viability, T/C [2]: 53.8%
viability, T/C [3]: 10.1%
viability, T/C [4]: 2.94%
viability, T/C [5]: 2.18%
viability, T/C [6]: 0.59%
viability, T/C [7]: 29.7%
viability, T/C [8]: 19.7%
viability, T/C [9]: 8.71%
viability, T/C [10]: 3.16%
viability, T/C [11]: 1.36%
viability, T/C [12]: 0.71%
viability, T/C [13]: 10.3%
viability, T/C [14]: 9.3%
viability, T/C [15]: 5.22%
viability, T/C [16]: 3.25%
viability, T/C [17]: 1.25%
viability, T/C [18]: 1.38%
viability, T/C [19]: 6.49%
viability, T/C [20]: 6.05%
viability, T/C [21]: 4.38%
viability, T/C [22]: 2.66%
viability, T/C [23]: 1.27%
viability, T/C [24]: 0.48%
viability, T/C [25]: 4.76%
viability, T/C [26]: 4.96%
viability, T/C [27]: 2.85%
viability, T/C [28]: 0.6%
viability, T/C [29]: 0.46%
viability, T/C [30]: 0.09%
viability, T/C [31]: 0.03%
viability, T/C [32]: 0.07%
viability, T/C [33]: 0.09%
viability, T/C [34]: 0.06%
viability, T/C [35]: 0.12%
viability, T/C [36]: 0.12%
